According to PMC5308906 (Angewandte Chemie (International ed. in English), 2016):
No end group written: not given here.

Assays:
[1] = biological target: T1, εPKC (Homo sapiens, UniProt Q02156); experiment: In vitro binding assay of εPKC to the peptides; details: εPKC at ~75 μg/mL (~1 μM)
T1 sequence (Q02156 1-737): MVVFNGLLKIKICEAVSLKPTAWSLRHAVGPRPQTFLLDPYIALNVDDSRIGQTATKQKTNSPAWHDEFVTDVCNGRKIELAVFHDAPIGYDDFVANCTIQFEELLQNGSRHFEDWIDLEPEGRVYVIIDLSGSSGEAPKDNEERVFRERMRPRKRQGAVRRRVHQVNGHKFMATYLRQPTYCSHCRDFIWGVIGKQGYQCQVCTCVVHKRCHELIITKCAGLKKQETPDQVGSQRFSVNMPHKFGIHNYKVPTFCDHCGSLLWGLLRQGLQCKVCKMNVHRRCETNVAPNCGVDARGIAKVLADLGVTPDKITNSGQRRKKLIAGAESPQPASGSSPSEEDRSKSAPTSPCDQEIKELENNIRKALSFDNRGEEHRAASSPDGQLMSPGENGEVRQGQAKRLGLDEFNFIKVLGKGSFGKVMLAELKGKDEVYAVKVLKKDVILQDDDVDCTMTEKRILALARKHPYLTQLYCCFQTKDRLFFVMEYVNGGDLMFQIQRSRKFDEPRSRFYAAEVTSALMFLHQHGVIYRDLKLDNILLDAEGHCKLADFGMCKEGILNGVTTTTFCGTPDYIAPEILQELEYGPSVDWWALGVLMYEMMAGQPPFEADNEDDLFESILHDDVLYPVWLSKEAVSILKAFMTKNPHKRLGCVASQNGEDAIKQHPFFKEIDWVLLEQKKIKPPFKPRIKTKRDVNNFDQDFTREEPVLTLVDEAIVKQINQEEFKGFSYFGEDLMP

[2] = system: H9c2 cells; type: cell-based; details: H9c2, ischemia and reoxygenation
[3] = system: Rat hearts subjected to I/R; experiment: Langendorff ex vivo model of myocardial infarction; details: ψDrp1 alanine substitution study, n=4
[4] = system: H9c2 cells; experiment: Mitochondrial ROS production; details: H9c2, ischemia and reoxygenation; peptide 2 μM
[5] = system: phosphorylation of Drp1; experiment: Drp1 phosphorylation after cardiac I/R, ψDrp1 derivatives; details: hearts subjected to I/R
[6] = biological target: δPKC (Homo sapiens, UniProt Q05655); experiment: In vitro binding assay of δPKC to the peptides
Chain of δPKC (Q05655 whole entry): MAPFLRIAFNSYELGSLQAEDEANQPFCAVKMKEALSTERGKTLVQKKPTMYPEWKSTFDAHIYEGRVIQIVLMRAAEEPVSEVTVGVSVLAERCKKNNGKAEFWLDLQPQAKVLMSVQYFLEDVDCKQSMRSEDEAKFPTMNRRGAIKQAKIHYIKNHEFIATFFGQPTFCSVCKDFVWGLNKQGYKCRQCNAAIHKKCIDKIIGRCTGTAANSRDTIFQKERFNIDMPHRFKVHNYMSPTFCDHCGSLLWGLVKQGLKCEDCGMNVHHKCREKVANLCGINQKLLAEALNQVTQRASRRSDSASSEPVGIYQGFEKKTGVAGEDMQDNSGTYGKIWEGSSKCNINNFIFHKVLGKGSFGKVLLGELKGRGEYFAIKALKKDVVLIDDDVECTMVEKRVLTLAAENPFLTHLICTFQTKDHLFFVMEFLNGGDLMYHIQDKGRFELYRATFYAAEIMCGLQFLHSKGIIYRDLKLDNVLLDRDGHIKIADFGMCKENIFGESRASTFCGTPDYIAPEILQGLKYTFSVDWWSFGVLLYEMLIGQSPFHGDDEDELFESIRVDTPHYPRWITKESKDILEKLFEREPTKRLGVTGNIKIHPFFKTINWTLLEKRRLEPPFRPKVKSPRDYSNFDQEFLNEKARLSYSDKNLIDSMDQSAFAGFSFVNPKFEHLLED

Question: For “RAAEEP-NH2 (C-terminus assumed) [ψMARCKS-Cargo]”, which “Binding to εPKC” value [1] is on record?
Answer: Its value is “not to the another PKC isozyme, εPKC”.

Question: With “YGRKKRRQRRRGGYTDFDE-NH2 (C-terminus assumed) [ψDrp1]” as the substance, how does the “Effect on mitochondrial function and cell viability” value [2] read?
Answer: The value was “rescued mitochondrial function and cell viability”.

Question: What about the “Protection from cardiac damage” value [3] of the same substance?
Answer: Its value is 75%.

Question: What about the “Effect on excessive mitochondrial ROS production” value [4] of the same substance?
Answer: Its value is “decreased excessive mitochondrial ROS production”.

Question: YTAFDE-TAT [ψDrp1 Asp3 Ala] was tested. Which “Protection from cardiac damage” value [3] did it give?
Answer: The value was 65%.

Question: What about the “Effect on Drp1 phosphorylation” value [5] of the same substance?
Answer: Its value is “inhibited Drp1 phosphorylation”.

Question: How did the Kd [6] turn out when YTDFDE [ψDrp1-Cargo] was run?
Answer: The Kd was 1.4 ± 0.3 nM.
